The values that follow come from paper PMC9428674 (RSC Chemical Biology, 2022).

One series deals with NTAQ1. In words: Western blot verification of NTAQ1 degradation. Conditions: 100 nM MLN4924 pre-treatment for 2 hours. In general terms: A western blot detects proteins with antibodies after separation by electrophoresis.
The conditions of series [1]: cited from earlier work.

SMILES strings stand for the structures.

In the case of `NS(=O)(=O)OC[C@@H]1C[C@@H](n2ccc3c(N[C@H]4CCc5ccccc54)ncnc32)C[C@@H]1O` [MLN4924], in the series with NTAQ1, the “effect of pre-treatment on NTAQ1 downregulation by EM12-FS” value was “rescued downregulation of NTAQ1 by EM12-FS”.

For `Nc1cccc2c1CN(C1CCC(=O)NC1=O)C2=O` (stereo not shown) [lenalidomide], the human plasma half-life in series [1] is 4.73 h.

Take `Nc1cccc2c1C(=O)N(C1CCC(=O)NC1=O)C2=O` (stereo not shown) [pomalidomide]: the human plasma half-life in series [1] is 2.65 h.

Consider `O=C1CCC(N2C(=O)c3ccccc3C2=O)C(=O)N1` (stereo not shown) [thalidomide], for which the human plasma half-life in series [1] is 0.367 h.
